Patent US12427137B2, “Method for reducing methane production in animal stomach” (CHINA AGRICULTURAL UNIVERSITY, priority 2022, dated 2025)
Marks after values point to notes of the source that are not given here.

Experiments:
[1] = test system: rumen fluids of cows (in vitro rumen fermentation system); experiment: In vitro fermentation of rumen fluids of cows, methane content by gas chromatography; assay type: cell-based; settings: for methane production of the in vitro rumen fermentation system: FIG. 1
Excerpt: Rumen fluids were collected from fistulated cows before morning feeding, filtered through 4 layers of gauze, and then brought back to the laboratory by placing in a thermos flask. The experiment comprised a control group (CON) and melatonin groups (MT: 10^−3 mol/L, 10^−5 mol/L, 10^−7 mol/L). The cattle farm Total Mixed Rations (TMR) was used as the fermentation substrate, and artificial saliva was used as the matrix. Oxygen in the fermentation flasks was replaced with nitrogen. Then, the rumen fluids were incubated anaerobically at 39° C. in an incubator, which was connected to a gas bag to collect the fermentation gas. The methane content in the gas bag was detected by gas chromatography. In vitro experiment: melatonin was added during the in vitro simulation of rumen fermentation. The in vitro rumen fermentation system of 75 mL in each bottle comprises 0.5 g TMR powder, 50 mL of artificial saliva and 25 mL of filtered rumen fluid. The 10^−3 mol/L, 10^−5 mol/L and 10^−7 mol/L melatonin groups (melatonin dissolved in a small amount of DMSO and diluted to these concentrations with saline) and a control group (only solvent, i.e., a small amount of DMSO+saline) were set up separately. For each group, the samples were collected at the fermentation times 2 h, 4 h, 8 h, 24 h and 48 h. Three replicates were set for each sample. After fermenting anaerobically at 39° C., the gas bags and fermentation liquid were collected. Gas chromatography was used to detect the methane content in the gas of the gas bags. The obtained data were analyzed by one-way analysis of variance (One Way ANOVA) by means of SPSS® (Statistical Product and Service Solutions) statistical software. p<0.05 indicated significant difference and p<0.01 indicated extremely significant difference. The DunCan test was used for multiple comparisons. The results were expressed as means±SEM. Addition form I: adding melatonin powder (MT p) directly to the fermentation system to a final concentration of 2×10−3 mol/L. Addition form II: adding concentrated melatonin solution (MT s) of 10^−3 mol/L at 0 h and 24 h respectively.

lactating cows = experiment: Methane content in respiratory gases of cows fed with melatonin; assay type: in vivo; settings: fed 15 mg/kg/day
Description: In vivo experiment: twenty lactating cows with similar ages and body conditions were selected and randomly divided into two groups, a control group (fed with digestible paper only) and a melatonin-fed group (fed with melatonin wrapped in digestible paper, 15 mg/kg/day). Each group had 10 cows. The cows were fed every morning after milking. The treatment lasted for 21 days. The rumen fluids were collected with rumen collection tubes before the morning feeding on days 0, 7, 14 and 21, respectively. The concentrations of melatonin in the rumen fluids were measured by liquid chromatography tandem mass spectrometry (LC-MS/MS). The breathing gas of the cows was collected by a breathing gas collection system to detect the methane content therein. Meanwhile, the information (e.g., the health condition and milk quality) of the cows was also recorded to monitor the influence of the feeding experiment on the dairy production. Lactating cows were fed with melatonin powder of 15 mg/kg/day for 21 days. The respiratory gases were collected from each group at days 0, 7, 14 and 21 by using a respiratory gas collection system. The methane contents in the gases were detected by gas chromatography. […] In addition, this effect can be maintained for a longer period of time.

[2] = Melatonin concentration in rumen fluids of cows fed with melatonin; assay type: in vivo; settings: cows fed 15 mg/kg/day, days 7 to 21, FIG. 2
Description: In vivo experiment: twenty lactating cows with similar ages and body conditions were selected and randomly divided into two groups, a control group (fed with digestible paper only) and a melatonin-fed group (fed with melatonin wrapped in digestible paper, 15 mg/kg/day). Each group had 10 cows. The cows were fed every morning after milking. The treatment lasted for 21 days. The rumen fluids were collected with rumen collection tubes before the morning feeding on days 0, 7, 14 and 21, respectively. The concentrations of melatonin in the rumen fluids were measured by liquid chromatography tandem mass spectrometry (LC-MS/MS). The breathing gas of the cows was collected by a breathing gas collection system to detect the methane content therein. Meanwhile, the information (e.g., the health condition and milk quality) of the cows was also recorded to monitor the influence of the feeding experiment on the dairy production.
Twenty lactating cows with similar ages and body conditions were selected and randomly divided into two groups, a control group (CON, fed with digestible paper only) and a melatonin-fed group (MT, fed with melatonin wrapped in digestible paper). Each group had 10 cows. […] And the melatonin contents in the rumen fluids were determined by […]. […]

[3] = test system: rumen fluids (in vitro rumen fluid fermentation); experiment: Volatile fatty acids (VFAs) from the in vitro rumen fluid fermentation, gas chromatography; assay type: cell-based, cows; settings: 10^−3 mol/L melatonin, 48 h
Description: Rumen microorganisms can degrade plant fibers and produce VFAs, which in turn provide energy substances to the hosts. Thus, we analyzed the production of VFAs from the in vitro fermentation system. Based on the above experiments, we determined to in vitro treat the rumen fluids with 10^−3 mol/L of melatonin solution for 48 h. The levels of six VFAs (i.e., acetate (A), propionate (P), butyrate (B), isobutyrate, valerate and isovalerate), were detected in the in vitro rumen fluid fermentation solution by gas chromatography. […] In the rumens of ruminant animals, CO2 and H2 are mainly produced during the conversion of pyruvate into acetate and butyrate in glycolysis, and glucose can be generated from propionate. The A/P ratios of the two groups were compared, 3.00 for the control group and 3.372 for the melatonin group.

[4] = test system: archaea / methanogenic genera of the rumen microbial flora; experiment: Metagenome sequencing of in vitro fermentation rumen fluids (archaea); assay type: cell-based, cows; settings: melatonin treatment vs control, FIG. 7B
Description: Metagenome sequencing was performed in order to further study the changes in the rumen microbial flora. In addition to the analysis of the gene table, the metagenome sequencing can also analyze the microbial compositions of the samples. Thus, it can obtain more information on the species, including phages, viruses, fungi, archaea and the like, other than bacteria. […] Due to the discovery of the methane-reducing effect of melatonin, we focused on the changes of archaea. 72 species archaea species, which had different abundance between the control and melatonin groups, were screened. […] Thus, melatonin can reduce the methane production by reducing the abundance of most methanogenic microbial flora.

rumen microbial flora = experiment: Microorganism compositions of the in vitro rumen fermentation system (Alpha diversity, differential species analysis); assay type: cell-based, cows
Description: Alpha diversity can reflect the abundance and diversity of microbial flora. […] In order to clarify the species classification information of the microbial flora, the cluster analysis was performed to generate OTUs. FIGS. 5E-5F show the cluster diagram of the annotations at order level. […] There were significant differences in the relative abundance of Clostridiales, Bacteroides, Monadales, Desulfovibrionales and the like. The abundance of the microbial flora (e.g. Prevotella spp. and Succiniclasticum spp.) producing propionate and butyrate decreased, while the abundance of the microbial flora (e.g., Bifidobacterium) producing acetate increased. […] Each circle represents a species at the specific taxonomic level, and the size of the circle is positively correlated with the relative abundance of the species. The species with no significant differences are uniformly colored yellow, and the biomarkers for the species with differences are indicated with the color of the corresponding group.

melatonin concentrations in the rumen fluids [2]: significantly increased
SMILES: COc1ccc2[nH]cc(CCNC(C)=O)c2c1 [melatonin]
methane production of the in vitro fermentation ([1]; 10^−3 mol/L, 48 h, vs control): significantly reduced
methane production of the rumen fermentation liquid ([1]; 10^−3 to 10^−7 mol/L, 4 h to 8 h): reduced
reduction of methane production as compared with the control group ([1]; 4 h, all concentrations of melatonin groups (10^−3 to 10^−7 mol/L)): about 15%
methane content (%) ([1]; MT 10^−3 mol/L, fermentation time 2 h): 0.99 ± 0.05%
methane content (%) ([1]; MT 10^−3 mol/L, fermentation time 4 h): 3.42 ± 0.13%
methane content (%) ([1]; MT 10^−3 mol/L, fermentation time 8 h): 4.43 ± 0.39%
methane content (%) ([1]; MT 10^−3 mol/L, fermentation time 24 h): 9.68 ± 0.07%
methane content (%) ([1]; MT 10^−3 mol/L, fermentation time 48 h): 10.79 ± 0.53^b %
methane content (%) ([1]; MT 10^−5 mol/L, fermentation time 2 h): 1.09 ± 0.06%
methane content (%) ([1]; MT 10^−5 mol/L, fermentation time 4 h): 3.47 ± 0.07%
methane content (%) ([1]; MT 10^−5 mol/L, fermentation time 8 h): 4.47 ± 0.39%
methane content (%) ([1]; MT 10^−5 mol/L, fermentation time 24 h): 10.4 ± 0.24%
methane content (%) ([1]; MT 10^−5 mol/L, fermentation time 48 h): 12.65 ± 0.45^a %
methane content (%) ([1]; MT 10^−7 mol/L, fermentation time 2 h): 1.03 ± 0.07%
methane content (%) ([1]; MT 10^−7 mol/L, fermentation time 4 h): 3.45 ± 0.05%
methane content (%) ([1]; MT 10^−7 mol/L, fermentation time 8 h): 5.16 ± 0.14%
methane content (%) ([1]; MT 10^−7 mol/L, fermentation time 24 h): 10.6 ± 0.44%
methane content (%) ([1]; MT 10^−7 mol/L, fermentation time 48 h): 11.25 ± 0.67^a %
methane production of the in vitro rumen fermentation system ([1]; addition form I: melatonin powder (MT p), final concentration 2×10−3 mol/L, 48 h): significantly reduced
methane production of the in vitro rumen fermentation system ([1]; addition form II: concentrated melatonin solution (MT s) of 10^−3 mol/L at 0 h and 24 h, 48 h): significantly reduced
methane production from the respiration of the cows (lactating cows; day 14, FIG. 3): decreased significantly
methane production from the respiration of the cows (lactating cows; day 21, FIG. 3): decreased to a similar extent as at day 14
methane production from the respiration of the cows (lactating cows; from day 7, FIG. 3): decreased
level of acetic acid in rumen fluids ([3]; FIG. 4): significantly reduced
level of propionic acid in rumen fluids ([3]; FIG. 4): significantly reduced
A/P ratio (acetate/propionate) ([3]; control group 3.00): 3.372
abundance of most methanogenic genera (Halobacterium, Methanoplanus, Methanococcoides, Methanoculleus, Methanothrix spp.) [4]: reduced
abundance of the microbial flora producing acetate (e.g., Bifidobacterium) (rumen microbial flora; FIGS. 6A-6B): increased
abundance of the microbial flora producing propionate and butyrate (e.g. Prevotella spp. and Succiniclasticum spp.) (rumen microbial flora; FIGS. 6A-6B): decreased
diversity of rumen microbial flora (Alpha diversity) (rumen microbial flora; melatonin added to the fermentation system, FIGS. 5A-5D): increased
compositions of the microbial flora (relative abundance of orders Clostridiales, Bacteroides, Monadales, Desulfovibrionales) (rumen microbial flora; melatonin treatment, FIGS. 5E-5F): significant changes
